Laboratory results reported in patent publication US10640535B2, “Identification of MHC class I phospho-peptide antigens from breast cancer utilizing SHLA technology and complementary enrichment strategies” (Agenus Inc., priority 2012, dated 2020).
Non-standard residues stand in square brackets, D forms with d. No end group written: not given here. pS = N[C@@H](COP(=O)(O)O)C(=O)O

System: phosphopeptide-specific CTL
Experiment: Recognition of naturally processed phosphopeptides on cancer cell lines by phosphopeptide-specific CTL (murine IFNγ ELISA)
Assay type: cell-based
Conditions: 24 hours with COV413.AAD.A4, DM331.AAD.A4, SLM2.AAD.A1, MCF7.AAD.A2, MDAMB231.AAD cancer lines and JY EBV-BLCL control
Description: FIG. 1, comprising FIGS. 1A and 1B, is a graphic illustration of the recognition of naturally processed and presented phosphorylated peptides on cancer cells by the phosphopeptide-specific CTL. Phosphopeptide-specific CTL were incubated with the following cancer cell lines or EBV-transformed B lymphoblastoid cell lines (BLCL): COV413.AAD.A4 ovarian carcinoma, DM331.AAD.A4 and SLM2.AAD.A1 melanomas, MCF7.AAD.A2 and MDAMB231.AAD breast carcinomas, and JY EBV-BLCL. Supernatants were harvested and evaluated for the presence of murine IFNγ (produced by murine CTL lines). […] The ordinate indicates murine IFNγ in pg/ml. The abscissa indicates each cell line.
CTL specific for two of the antigen peptides were generated by long term culture with the peptides. Two CTL lines specific for the antigen peptide GLLGpSPVRA, lines 6850 and 6960, SEQ ID NO: 13, and two CTL lines specific for the antigen peptide RVApSPTSGV, SEQ ID NO: 14, lines 5183 and 63 were used to detect these two antigen peptides on cancer cells. […] Supernatants were harvested 24 hours later and evaluated for the presence of murine IFN[…] (produced by murine CTL lines) by ELISA (eBioscience Ready-Set-go murine IFN[…] ELISA kit).

Substance	recognition of the phosphopeptide on cell lines by phosphopeptide-specific CTL (murine IFNγ in supernatant) (CTL lines 5183 and 63, FIG. 1B)	recognition of the phosphopeptide on cell lines by phosphopeptide-specific CTL (murine IFNγ in supernatant) (CTL lines 6850 and 6960, FIG. 1A)
RVApSPTSGV (RVA[pS]PTSGV; listed as Homo sapiens) [phosphopeptide from Insulin receptor substrate-2, HLA-A2.1]	recognize the phosphopeptide on all the cancer cell lines, but not the control cell line	
GLLGpSPVRA (GLLG[pS]PVRA; listed as Homo sapiens) [phosphopeptide from CDC25b:p63, HLA-A2.1]		recognize the phosphopeptide on all the cancer cell lines, but not the control cell line
